Data as given in patent publication US20080131432A1, “Method of treating the chemotoxic effects of chemotherapeutic drugs on brain tissue” (University of Kentucky Research Foundation, priority 2005, published 2008).
“Also recorded” adds a separate entry of the source. Counter-ions that a name gives are not always drawn.

Assays:
[1] = Localization of ADR in brain tissue (inverted fluorescence microscope); assay type: in vivo; conditions: mouse brain 3 hours after 20 mg/kg ADR i.p.; hydrochloride
Protocol: Eight-week-old male B6C3 mice (25-30 g) were kept under standard conditions. The mice were injected in a single intraperitoneal (i.p.) dose of 20 mg/kg adriamycin (Doxorubicin hydrochloride, […] Sicor Phamaceuticals, Inc., Irvine, Calif.), or the same volume of saline as control for 3 hours. […] Controls consisted of anti-TNF α antibody alone, or saline in the same total volume. All results were obtained from at least three separate experiments. Mice were euthanized by the i.p. injection of 65 mg/kg of nembutal (Sodium pentobarbital, Abbott Laboratories, North Chicago, Ill.), and were perfused via cardiac puncture initially with 0.1 M phosphate buffered saline (PBS), pH 7.4, and subsequent fixation with 4% paraformaldehyde. […] The sections were prepared for immunohistochemistry and detection of ADR. ADR in brain tissue slices was directly visualized using an inverted fluorescence microscope, FIG. 1 (excitation filter 550 nm, and barrier filter 590 nm). Photomicrographs were taken with an Olympus MagnaFire digital camera (Olympus, America, Melville, N.Y.).

TNF α = experiment: Immunofluorescence of TNF α localization in neurons of cortex and hippocampus (MAP2 co-staining); assay type: in vivo, mouse; conditions: 3 hours after 20 mg/kg ADR, vs saline; hydrochloride
Protocol: Brain tissue slices were fixed in 4% paraformaldehyde for 15 minutes, air dried, and washed with PBS. Non-specific proteins were blocked in blocking serum, consisting of 3% normal donkey's serum, and 0.3% Triton x-100 in PBS, and incubated at room temperature for 30 minutes. After blocking, slices were incubated with primary anti-TNF α (Upstate, Lake Placid, N.Y.), and anti-MAP2 antibody (Chemicon, Temecula, Calif.) was used as a neuronal marker, in order to study the location of TNF α in neurons of cortical and hippocampal regions. The sections were kept in a humidified box at 4° C. overnight. Tissues were washed three times with PBS and then were incubated for 1 hour with donkey antibody-conjugated secondary antibodies coated with fluorescent dyes. Excess secondary antibodies were removed by washing three times in PBS and once with deionized H2O. Tissue slides were mounted with mounting medium (Vectashield, HOURS-100, Vector Laboratories, Burlingame, Calif.). Photomicrographs were obtained using a Leica confocal fluorescence microscope (Leica Microsystems Inc., Bannockburn, Ill., USA).

[2] = test system: mitochondrial respiration complex II; experiment: Brain mitochondrial respiration, complex II (succinate); assay type: in vivo, mouse; conditions: succinate as substrate, after ADR
Protocol: Mice were perfused via cardiac puncture with cold mitochondrial isolation buffer, the brain promptly removed, the cerebellum dissected away, and mitochondria immediately isolated from the freshly brain by a modification of the method described by Mattiazzi et al. (2002). Brain mitochondria were isolated in cold mitochondrial isolation buffer, containing 0.07 M sucrose, 0.22 M mannitol, 20 mM HEPES, 1 mM EGTA, and 1% bovine serum albumin, pH 7.2. Tissues were homogenized with a Dounce homogenizer and centrifuged at 1,500×g at 4° C. for 5 minutes before transferring the supernatant. The pellets were resuspended and centrifuged at 1,500×g at 4° C. for 5 minutes. […] Protein concentration of isolated mitochondria was determined by the Bradford assay (Bradford, 1976). […]
Mitochondrial respiration was determined using Clark-type polarographic oxygen sensors (Hansatech Instruments, Kings Lynn, Norfolk, UK) to measure the rate of oxygen consumption. […] Oxygen consumption was measured with either pyruvate (10 mM) plus malate (10 mM) or succinate (10 mM) as substrates for respiration from complex I or complex II in the absence of exogenous ADP (state II) and after addition of 300 mM ADP (state III respiration). […] Respiration control ratios (RCR) were calculated as the ratios of state III and state II respiration as described previously by Estabrook (1967). […]

p53 and Bcl-xL complex = experiment: Co-immunoprecipitation of p53 with Bcl-xL in brain mitochondria; assay type: in vivo, mouse; conditions: after ADR, vs saline control; hydrochloride
Protocol: Isolated mitochondrial protein (500 μg) was resuspended in 500 μL RIPA buffer (9.1 mM Na2HPO4, 1.7 mM NaH2PO4, 150 mM NaCl, 0.5% sodium deoxycholate, 1% v/v Nonidet P40, 0.1% sodium dodecyl sulfate, pH 7.2). Protease inhibitors (0.1 mg PMSF and 1 μg aprotinin per mL RIPA) were added at the time of use followed by incubation with 5 μg/mL of mouse p53 antibody (Ab-11, Oncogene) at 4° C. overnight. Protein A/G-Agarose (50 μL) was added to the reaction mixture with the antibody. Immunocomplexes were collected by centrifugation at 1,000×g at 4° C. for 5 minutes, then washed four times with RIPA buffer. Immunoprecipitated samples were recovered by resuspending in 2×sample loading buffer, and p53 or Bcl-xL (Santa Cruz Biotechnology, Santa Cruz, Calif.) proteins were detected by Western blot. Immunoreactivity was evaluated on immunoblots by densitrometric analysis using a Bio-RAD densitometer (Bio-RAD Laboratory, Inc, Hercules, Calif., USA).

MnSOD = experiment: Nitration of MnSOD (immunoprecipitation and western blot); assay type: in vivo, mouse; conditions: hydrochloride
Protocol: Solubilized isolated mitochondrial proteins (500 μg) in 500 μL RIPA buffer (9.1 mM Na2HPO4, 1.7 mM NaH2PO4, 150 mM NaCl, 0.5% sodium deoxycholate, 1% v/v Nonidet P40, 0.1% SDS, pH 7.2) were incubated for 16 hours at 4° C. with 10 μg/mL anti-nitrotyrosine antibody (Cayman Chemical, Ann Arbor, Mich., USA) or polyclonal anti-MnSOD antibody (Upstate Biotechnology). Immune complexes were precipitated with 50 μL protein A/G-Agarose. Immunocomplexes were collected by centrifugation at 1500 g for 5 minutes at 4° C., and then washed four times with RIPA buffer. Immunoprecipitated samples were recovered by resuspending in 50 μL 2×sample loading buffer, heated to 95° C. for 5 minutes, and immediately fractionated by reducing SDS-PAGE in 12.5% gels. […] Immunoreactivities of the MnSOD nitrated protein bands were detected by ECL (Amersham Phamacia Biotech) as described by the manufacturer. Nitration of MnSOD was quantified using an akaline phosphatase-linked secondary antibody (Sigma), as described previously (Sultana et al. 2004), and evaluated by densitometric analysis used a Bio-Rad densitometer (Bio-Rad Laboratories, Hercules, Calif., USA).

MnSOD, CuZnSOD = experiment: MnSOD and CuZnSOD protein levels in brain homogenates (western blot); assay type: in vivo, mouse; conditions: wild-type and iNOSKO mice, 3 hours after ADR 20 mg/kg
Protocol: Brains were perfused, the cerebellum removed and the brain dissected from mice treated with i.p. ADR 20 mg/kg, or saline as a control, for 3 hours. Brains were placed in ice-cold 50 mM PBS, pH 7.4, containing the protease inhibitors 4 μg leupeptin, 4 μg pepstatin, and 5 μg aprotinin, washed and chopped in ice-cold PBS containing protease inhibitors. Tissues were homogenized with a Potter-Elvehjem glass homogenizer with a loose fitting Teflon® pestle, and protein concentration was determined by the Bradford assay (Bradford, 1976). Brain homogenate proteins were size-separated using denaturing sodium dodecyl sulfate-polyacrylamide gel electrophoresis (SDS-PAGE). Proteins (50 μg) were electrophoresed on 12.5% SDS-PAGE and transferred to a nitrocellulose membrane. The membrane was blocked for 1 hour at room temperature in blocking solution consisting of 5% non-fat dried milk, Tris-buffered saline (TBST; 10 mM Tris-HC, 150 mM NaCl, 0.05% Tween 20), pH 7.9. After blocking, the membrane was incubated overnight at 4° C. with primary antibodies against MnSOD (Upstate, Lake Placid, N.Y., USA), Cu/ZnSOD (Calbiochem, San Diego, Calif., USA) and β-actin (Sigma) in blocking solution. […] Immunoreactivities of the protein bands were detected by enhanced chemiluminescence autoradiography (ECL; Amersham Phamacia Biotech, Arlington Heights, Ill., USA) as described by the manufacturer.

[3] = test system: mitochondrial respiration complex I; experiment: Brain mitochondrial respiration, complex I (pyruvate + malate), respiration control ratio; conditions: 3 hours after treatment, hydrochloride
Protocol: Mice were perfused via cardiac puncture with cold mitochondrial isolation buffer, the brain promptly removed, the cerebellum dissected away, and mitochondria immediately isolated from the freshly brain by a modification of the method described by Mattiazzi et al. (2002). Brain mitochondria were isolated in cold mitochondrial isolation buffer, containing 0.07 M sucrose, 0.22 M mannitol, 20 mM HEPES, 1 mM EGTA, and 1% bovine serum albumin, pH 7.2. Tissues were homogenized with a Dounce homogenizer and centrifuged at 1,500×g at 4° C. for 5 minutes before transferring the supernatant. The pellets were resuspended and centrifuged at 1,500×g at 4° C. for 5 minutes. The supernatants were combined and centrifuged at 13,500×g at 4° C. for 10 minutes. Mitochondrial pellets were washed twice and finally resuspended in 50-100 μL cold isolation buffer. Protein concentration of isolated mitochondria was determined by the Bradford assay (Bradford, 1976). The final protein concentration was 20-40 mg/ml.
Mitochondrial respiration was determined using Clark-type polarographic oxygen sensors (Hansatech Instruments, Kings Lynn, Norfolk, UK) to measure the rate of oxygen consumption. Freshly isolated mitochondria were suspended in respiration buffer at a concentration of 0.5 mg mitochondrial protein per mL of respiration buffer, which consists of 0.25 M sucrose, 50 mM HEPES, 1 mM EGTA, 10 mM KH2PO4, and 2 mM MgCl2, pH 7.4. Oxygen consumption was measured with either pyruvate (10 mM) plus malate (10 mM) or succinate (10 mM) as substrates for respiration from complex I or complex II in the absence of exogenous ADP (state II) and after addition of 300 mM ADP (state III respiration). Rotenone (5 μM) was added to the reaction to inhibit respiration from complex I when succinate was used as the substrate. […] FCCP (1 μM), an uncoupling agent, was added as a control of respiration. Respiration control ratios (RCR) were calculated as the ratios of state III and state II respiration as described previously by Estabrook (1967). The unit for state II rate and state III rate is nmole/min/mg protein.
Mice were perfused via cardiac puncture with cold mitochondrial isolation buffer, the brain promptly removed, the cerebellum dissected away, and mitochondria immediately isolated from the freshly brain by a modification of the method described by Mattiazzi et al. (2002). Brain mitochondria were isolated in cold mitochondrial isolation buffer, containing 0.07 M sucrose, 0.22 M mannitol, 20 mM HEPES, 1 mM EGTA, and 1% bovine serum albumin, pH 7.2. Tissues were homogenized with a Dounce homogenizer and centrifuged at 1,500×g at 4° C. for 3 minutes before transferring the supernatant fluid. The pellets were resuspended and centrifuged at 1,500×g at 4° C. for 3 minutes. The supernatant fluids were combined and centrifuged at 1,500×g at 4° C. for 3 minutes. These supernatant fluids were then centrifuged at 13,500×g at 4° C. for 10 minutes. Mitochondrial pellets were washed twice and finally resuspended in 50-100 μL cold isolation buffer. Protein concentration of isolated mitochondria was determined by the Bradford assay (Bradford, 1976).
Mitochondrial respiration was determined using Clark-type polarographic oxygen sensors (Hansatech Instruments, UK) to measure the rate of oxygen consumption. Freshly-isolated mitochondria were suspended in respiration buffer at a concentration of 0.5 mg mitochondrial protein/mL respiration buffer, which consisted of 0.25 M sucrose, 50 mM HEPES, 1 mM EGTA, 10 mM KH2PO4, 2 mM MgCl2 and 0.2% BSA, pH 7.4. Oxygen consumption was measured with either pyruvate (10 mM) or pyruvate plus malate (10 mM) as substrates for respiration from complex I, in the absence of exogenous ADP (state II), and after addition of 300 mM ADP (state III respiration). […] FCCP (1 μM), an uncoupling agent, was added as a control respiration. Respiration control ratios (RCR) were calculated as the ratios of state III and state II respiration.

In the case of `COc1cccc2c1C(=O)c1c(O)c3c(c(O)c1C2=O)C[C@@](O)(C(=O)CO)C[C@@H]3O[C@H]1C[C@H](N)[C@H](O)[C@H](C)O1` [ADR, Doxorubicin hydrochloride], the “ADR orange-red fluorescence in areas outside the blood brain barrier (choroid plexus)” value [1] is reported as “observed in several areas outside the blood brain barrier, including the choroid plexus; also recorded: apparent in the choroid plexus”, the “ADR orange-red fluorescence in cortex and hippocampus” value [1] is reported as “not observed in cortex and hippocampus; also recorded: not detected” and the “TNF α in neurons of cortex” value (TNF α) is reported as “clearly were increased”. For the same molecule, the “TNF α in neurons of hippocampus” value (TNF α) was “clearly were increased”, the “Brain mitochondrial respiration complex II” value [2] was “no effect” and the “p53 and Bcl-xL complex in brain mitochondria (Bcl-xL bands after anti-p53 immunoprecipitation)” value (p53 and Bcl-xL complex) was “specific increases of p53 and Bcl-xL; also recorded: increased at 3 hours”. For the same molecule, the “Expression of immunoprecipitated MnSOD protein, control vs ADR-treated brain mitochondria” value (MnSOD; immunoprecipitation with anti-MnSOD antibody) was “no difference in expression; also recorded: No significant difference”, the “Nitrated MnSOD (nitrotyrosine in MnSOD) in brain mitochondria” value (MnSOD; wild-type mice, 3 hours after ADR 20 mg/kg) was “an increase of nitrated MnSOD; also recorded: significant increase in nitration of MnSOD; also recorded: significantly increased protein nitration” and the “CuZnSOD protein level in brain homogenates” value (MnSOD, CuZnSOD) was “no change”. The “MnSOD protein level in brain homogenates” value (MnSOD, CuZnSOD) was “no change”, the “Brain mitochondrial respiration complex I (RCR)” value ([3]; iNOSKO mice) was “no effect; also recorded: not in iNOSKO mice” and the “Brain mitochondrial respiration complex I (RCR, state III / state II)” value ([3]; wild-type mice, vs saline control) was “significantly decreased; also recorded: decline”.
